Assay results as given in ChEMBL document CHEMBL1201862, “PubChem BioAssay data set” (2004).
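96-well plates; 48 h exposure; 5 concentrations. Endpoints by linear interpolation between flanking doses. Not reached: highest tested concentration assigned. GI50 = concentration required for 50% inhibition of growth.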 Calls of active or inactive are those of the source. No stated cut-off is given here; in the data, active = GI50 up to about 1.1 µM and inactive = higher.

How the values were obtained:
Assay in all cases: inhibition of tumour cell growth, NCI panel, 48 h
MDA-N = tested on: MDA-N
DU-145 = tested on: DU-145
SK-OV-3 = tested on: SK-OV-3
OVCAR-3 = tested on: OVCAR-3
UO-31 = tested on: UO-31
KM12 = tested on: KM12
SF-295 = tested on: SF-295
RPMI-8226 = tested on: RPMI-8226
UACC-257 = tested on: UACC-257
UACC-62 = tested on: UACC-62
SK-MEL-5 = tested on: SK-MEL-5
MOLT-4 = tested on: MOLT-4
CCRF-CEM = tested on: CCRF-CEM
MDA-MB-435 = tested on: MDA-MB-435
M14 = tested on: M14
Malme-3M = tested on: Malme-3M
NCI-H522 = tested on: NCI-H522
SF-539 = tested on: SF-539
A498 = tested on: A498
LOX IMVI = tested on: LOX IMVI

Measured: GI50

Cc1ccc(OCC2OC(n3cnc4nc(Nc5ccc(Cl)c(Cl)c5)nc(Cl)c43)CC2Oc2ccc(C)cc2)cc1 (stereo not drawn)
inactive: MDA-N > 100 µM | DU-145 > 100 µM | SK-OV-3 > 100 µM | OVCAR-3 > 100 µM | UO-31 > 100 µM | KM12 > 100 µM | SF-295 > 100 µM | RPMI-8226 > 100 µM | UACC-257 > 100 µM | UACC-62 > 100 µM | SK-MEL-5 > 100 µM | MOLT-4 > 100 µM | CCRF-CEM > 100 µM | MDA-MB-435 > 100 µM | M14 > 100 µM | Malme-3M > 100 µM

O=C(Cc1nc2ccc([N+](=O)[O-])cc2nc1O)C(=O)Nc1cc(Cl)c(Cl)cc1Cl
inactive: MDA-N > 100 µM | NCI-H522 > 100 µM | SF-539 > 100 µM | DU-145 > 100 µM | SK-OV-3 71.3 µM | A498 > 100 µM | OVCAR-3 > 100 µM | LOX IMVI 69 µM | UO-31 > 100 µM | KM12 65.6 µM | SF-295 > 100 µM | UACC-257 > 100 µM | UACC-62 > 100 µM | SK-MEL-5 > 100 µM | MOLT-4 51.4 µM | CCRF-CEM > 100 µM | MDA-MB-435 > 100 µM | M14 > 100 µM | Malme-3M > 100 µM

Cc1ccc(O)c(-c2cc(-c3cccc(Br)c3)c(C#N)c(N)n2)c1
inactive: MDA-N 24.1 µM | NCI-H522 18.9 µM | SF-539 29.1 µM | DU-145 29.6 µM | SK-OV-3 31.9 µM | OVCAR-3 27.6 µM | LOX IMVI 16.3 µM | UO-31 20.4 µM | KM12 19.2 µM | SF-295 22.9 µM | RPMI-8226 11.5 µM | UACC-257 20.8 µM | UACC-62 16.4 µM | SK-MEL-5 19.2 µM | MOLT-4 20.1 µM | MDA-MB-435 16.3 µM | M14 31.9 µM | Malme-3M 23.5 µM

CSC(=NC1=NC(C(F)(F)F)(C(F)(F)F)N=C(c2ccccc2)O1)SC
inactive: MDA-N 17.3 µM | NCI-H522 3.1 µM | SF-539 29.2 µM | DU-145 6.9 µM | SK-OV-3 16.4 µM | A498 17.7 µM | OVCAR-3 7.46 µM | LOX IMVI 5.75 µM | UO-31 24 µM | KM12 4.91 µM | SF-295 7.13 µM | UACC-257 22 µM | UACC-62 20 µM | SK-MEL-5 16.1 µM | MOLT-4 6.07 µM | CCRF-CEM 6.92 µM | MDA-MB-435 17.5 µM | M14 19 µM | Malme-3M 16.3 µM

CC1=NN(c2nc(N)nc(C(C)Sc3cc(Cl)c(C)cc3S(N)(=O)=O)n2)C(C)(C)C1 (stereo not drawn)
inactive: MDA-N > 10 µM | NCI-H522 > 10 µM | SF-539 > 10 µM | DU-145 > 10 µM | SK-OV-3 > 10 µM | A498 > 10 µM | OVCAR-3 > 10 µM | LOX IMVI > 10 µM | UO-31 > 10 µM | KM12 > 10 µM | SF-295 > 10 µM | RPMI-8226 > 10 µM | UACC-257 > 10 µM | SK-MEL-5 > 10 µM | MOLT-4 > 10 µM | CCRF-CEM > 10 µM | M14 > 10 µM | Malme-3M > 10 µM

CN(C(=O)C1(C(=O)C=[N+]=[N-])CC1)c1ccccc1
inactive: MDA-N > 100 µM | NCI-H522 83.6 µM | SF-539 > 100 µM | DU-145 > 100 µM | OVCAR-3 > 100 µM | LOX IMVI > 100 µM | UO-31 > 100 µM | KM12 > 100 µM | SF-295 > 100 µM | RPMI-8226 > 100 µM | UACC-257 > 100 µM | UACC-62 > 100 µM | SK-MEL-5 > 100 µM | MOLT-4 > 100 µM | CCRF-CEM > 100 µM | MDA-MB-435 > 100 µM | M14 > 100 µM | Malme-3M > 100 µM

COC(=O)CC[N+]1=CCC(c2ccccc2)(c2ccccc2)O1
inactive: MDA-N 18.5 µM | NCI-H522 > 100 µM | SF-539 > 100 µM | DU-145 > 100 µM | SK-OV-3 > 100 µM | A498 > 100 µM | OVCAR-3 > 100 µM | UO-31 > 100 µM | KM12 > 100 µM | SF-295 > 100 µM | UACC-257 > 100 µM | UACC-62 > 100 µM | SK-MEL-5 > 100 µM | MOLT-4 > 100 µM | MDA-MB-435 41.8 µM | M14 > 100 µM

C#Cc1cc(-c2nc3ccccc3s2)ccc1N
inactive: MDA-N 33 µM | NCI-H522 15.8 µM | SF-539 32.2 µM | DU-145 16.7 µM | SK-OV-3 26.4 µM | OVCAR-3 16.8 µM | LOX IMVI 13.7 µM | UO-31 14.2 µM | KM12 18.9 µM | SF-295 20 µM | RPMI-8226 25.4 µM | UACC-257 12.6 µM | UACC-62 17.5 µM | SK-MEL-5 26.6 µM | MOLT-4 22.6 µM | CCRF-CEM 23.3 µM | MDA-MB-435 19.5 µM | M14 17.6 µM | Malme-3M 24.4 µM
